Laboratory results from publication PMC3914206.

Key:
Test in all cases: KiNativ chemical proteomics profiling in HeLa and PC3 cell lysates
Format in all cases: binding
[1] = biological target: T1, selected panels of kinases in HeLa and PC3 cell lysates (Homo sapiens, UniProt O15111); conditions: 10 uM; proteome HEL; peptide DLk[…]; labeling site Lys2
T1 construct: endogenous in cells; host or cells: HeLa and PC3 cell lysates

[2] = biological target: T2, selected panels of kinases in HeLa and PC3 cell lysates (Homo sapiens, UniProt Q13233); conditions: 10 uM; proteome HEL; peptide DVk[…]; labeling site Lys2
T2 construct: endogenous in cells; host or cells: HeLa and PC3 cell lysates

[3] = biological target: T3, selected panels of kinases in HeLa and PC3 cell lysates (Homo sapiens, UniProt P49840); conditions: 10 uM; proteome HEL; peptide DIk[…]; labeling site Lys2
T3 construct: endogenous in cells; host or cells: HeLa and PC3 cell lysates
T3 sequence (P49840 whole entry): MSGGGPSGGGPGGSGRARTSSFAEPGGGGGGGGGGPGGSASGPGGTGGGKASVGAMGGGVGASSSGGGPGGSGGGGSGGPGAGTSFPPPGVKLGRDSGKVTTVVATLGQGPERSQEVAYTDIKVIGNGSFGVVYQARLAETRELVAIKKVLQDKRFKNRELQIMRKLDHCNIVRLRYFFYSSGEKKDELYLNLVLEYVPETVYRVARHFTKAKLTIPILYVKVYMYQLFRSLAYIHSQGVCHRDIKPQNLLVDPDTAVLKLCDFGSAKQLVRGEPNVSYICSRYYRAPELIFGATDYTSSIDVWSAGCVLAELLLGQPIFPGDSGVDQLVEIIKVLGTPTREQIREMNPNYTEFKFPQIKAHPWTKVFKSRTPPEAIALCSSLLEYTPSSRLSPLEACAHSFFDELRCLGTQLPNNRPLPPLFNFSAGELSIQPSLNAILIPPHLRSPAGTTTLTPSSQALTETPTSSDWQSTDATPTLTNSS

[4] = biological target: T4, selected panels of kinases in HeLa and PC3 cell lysates (Homo sapiens, UniProt P49760); conditions: 10 uM; proteome PC3; peptide LTHTDLk[…]; labeling site Lys2
T4 construct: endogenous in cells; host or cells: HeLa and PC3 cell lysates

[5] = biological target: T5, selected panels of kinases in HeLa and PC3 cell lysates (Homo sapiens, UniProt P46734); conditions: 10 uM, peptide DVkPSNVLINK, labeling site Lys2
T5 construct: endogenous in cells; host or cells: HeLa and PC3 cell lysates
T5 sequence (P46734 1-347): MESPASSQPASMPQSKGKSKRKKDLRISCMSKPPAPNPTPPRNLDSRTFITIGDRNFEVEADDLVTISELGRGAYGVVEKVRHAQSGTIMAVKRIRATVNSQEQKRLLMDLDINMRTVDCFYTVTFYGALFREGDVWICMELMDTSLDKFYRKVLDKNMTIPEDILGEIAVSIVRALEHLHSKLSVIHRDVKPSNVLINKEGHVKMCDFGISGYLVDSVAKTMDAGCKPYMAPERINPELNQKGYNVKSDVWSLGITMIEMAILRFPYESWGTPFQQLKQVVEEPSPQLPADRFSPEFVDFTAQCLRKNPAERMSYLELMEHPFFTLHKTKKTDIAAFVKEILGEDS

[6] = biological target: T6, selected panels of kinases in HeLa and PC3 cell lysates (Homo sapiens, UniProt O75582); conditions: 10 uM; proteome HEL; peptide DIk[…]; labeling site Lys2
T6 construct: endogenous in cells; host or cells: HeLa and PC3 cell lysates

[7] = biological target: T7, selected panels of kinases in HeLa and PC3 cell lysates (Homo sapiens, UniProt P54760); conditions: 10 uM; proteome PC3; peptide […]kIPIR; labeling site Activation Loop
T7 construct: endogenous in cells; host or cells: HeLa and PC3 cell lysates

[8] = biological target: T8, selected panels of kinases in HeLa and PC3 cell lysates (Homo sapiens, UniProt Q96J92); conditions: 10 uM; Wnk4; peptide DLk[…]; proteome PC3; labeling site Lys2
T8 construct: endogenous in cells; host or cells: HeLa and PC3 cell lysates

[9] = biological target: T9, selected panels of kinases in HeLa and PC3 cell lysates (Homo sapiens, UniProt Q13555); conditions: 10 uM, peptide TSTQEYAAkIINTK, labeling site Lys1
T9 construct: endogenous in cells; host or cells: HeLa and PC3 cell lysates
T9 sequence (Q13555 whole entry): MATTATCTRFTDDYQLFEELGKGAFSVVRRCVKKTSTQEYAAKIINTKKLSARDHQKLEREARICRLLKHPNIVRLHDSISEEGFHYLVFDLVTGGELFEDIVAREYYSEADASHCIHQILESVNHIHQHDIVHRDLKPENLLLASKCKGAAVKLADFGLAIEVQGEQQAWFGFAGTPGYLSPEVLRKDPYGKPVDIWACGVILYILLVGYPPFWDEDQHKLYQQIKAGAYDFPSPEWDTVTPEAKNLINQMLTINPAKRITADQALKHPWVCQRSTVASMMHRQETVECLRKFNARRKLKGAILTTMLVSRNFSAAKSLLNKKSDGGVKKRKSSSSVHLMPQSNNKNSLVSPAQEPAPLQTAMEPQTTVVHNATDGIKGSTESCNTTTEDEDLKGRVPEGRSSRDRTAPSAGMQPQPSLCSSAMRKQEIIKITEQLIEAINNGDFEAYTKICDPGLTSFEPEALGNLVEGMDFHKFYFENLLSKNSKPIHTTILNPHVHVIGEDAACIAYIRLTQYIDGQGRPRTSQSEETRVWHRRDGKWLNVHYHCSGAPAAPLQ

[10] = biological target: T10, selected panels of kinases in HeLa and PC3 cell lysates (Homo sapiens, UniProt Q8TD19); conditions: 10 uM
T10 construct: endogenous in cells; host or cells: HeLa and PC3 cell lysates
T10 sequence (Q8TD19 1-979): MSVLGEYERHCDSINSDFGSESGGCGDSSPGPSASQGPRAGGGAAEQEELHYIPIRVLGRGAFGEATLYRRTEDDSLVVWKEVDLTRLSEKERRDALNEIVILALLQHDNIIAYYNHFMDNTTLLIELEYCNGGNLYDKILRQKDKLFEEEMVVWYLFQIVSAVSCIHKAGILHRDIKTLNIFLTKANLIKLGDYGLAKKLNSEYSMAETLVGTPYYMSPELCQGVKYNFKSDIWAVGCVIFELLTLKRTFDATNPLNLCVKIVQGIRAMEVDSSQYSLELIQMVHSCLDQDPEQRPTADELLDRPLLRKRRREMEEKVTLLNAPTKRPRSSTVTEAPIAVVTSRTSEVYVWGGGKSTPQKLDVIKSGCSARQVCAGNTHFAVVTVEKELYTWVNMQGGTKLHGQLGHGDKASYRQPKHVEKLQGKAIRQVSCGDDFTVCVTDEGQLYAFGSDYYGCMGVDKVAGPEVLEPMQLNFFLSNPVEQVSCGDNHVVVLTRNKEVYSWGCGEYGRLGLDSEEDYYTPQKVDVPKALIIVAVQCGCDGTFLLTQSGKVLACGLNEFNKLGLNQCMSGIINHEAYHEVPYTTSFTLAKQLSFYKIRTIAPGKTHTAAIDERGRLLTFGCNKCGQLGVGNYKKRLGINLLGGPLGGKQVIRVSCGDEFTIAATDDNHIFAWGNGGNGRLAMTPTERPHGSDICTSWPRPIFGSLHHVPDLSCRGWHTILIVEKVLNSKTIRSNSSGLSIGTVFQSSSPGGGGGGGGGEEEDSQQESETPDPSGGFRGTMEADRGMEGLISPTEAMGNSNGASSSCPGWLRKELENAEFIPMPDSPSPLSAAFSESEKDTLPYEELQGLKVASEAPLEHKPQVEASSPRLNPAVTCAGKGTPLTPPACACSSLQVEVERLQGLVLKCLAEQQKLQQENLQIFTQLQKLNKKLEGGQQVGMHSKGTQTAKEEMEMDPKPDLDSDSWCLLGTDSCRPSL

[11] = biological target: T11, selected panels of kinases in HeLa and PC3 cell lysates (Homo sapiens, UniProt P00533); conditions: 10 uM, proteome PC3
T11 construct: endogenous in cells; host or cells: HeLa and PC3 cell lysates
T11 sequence (P00533 25-1210): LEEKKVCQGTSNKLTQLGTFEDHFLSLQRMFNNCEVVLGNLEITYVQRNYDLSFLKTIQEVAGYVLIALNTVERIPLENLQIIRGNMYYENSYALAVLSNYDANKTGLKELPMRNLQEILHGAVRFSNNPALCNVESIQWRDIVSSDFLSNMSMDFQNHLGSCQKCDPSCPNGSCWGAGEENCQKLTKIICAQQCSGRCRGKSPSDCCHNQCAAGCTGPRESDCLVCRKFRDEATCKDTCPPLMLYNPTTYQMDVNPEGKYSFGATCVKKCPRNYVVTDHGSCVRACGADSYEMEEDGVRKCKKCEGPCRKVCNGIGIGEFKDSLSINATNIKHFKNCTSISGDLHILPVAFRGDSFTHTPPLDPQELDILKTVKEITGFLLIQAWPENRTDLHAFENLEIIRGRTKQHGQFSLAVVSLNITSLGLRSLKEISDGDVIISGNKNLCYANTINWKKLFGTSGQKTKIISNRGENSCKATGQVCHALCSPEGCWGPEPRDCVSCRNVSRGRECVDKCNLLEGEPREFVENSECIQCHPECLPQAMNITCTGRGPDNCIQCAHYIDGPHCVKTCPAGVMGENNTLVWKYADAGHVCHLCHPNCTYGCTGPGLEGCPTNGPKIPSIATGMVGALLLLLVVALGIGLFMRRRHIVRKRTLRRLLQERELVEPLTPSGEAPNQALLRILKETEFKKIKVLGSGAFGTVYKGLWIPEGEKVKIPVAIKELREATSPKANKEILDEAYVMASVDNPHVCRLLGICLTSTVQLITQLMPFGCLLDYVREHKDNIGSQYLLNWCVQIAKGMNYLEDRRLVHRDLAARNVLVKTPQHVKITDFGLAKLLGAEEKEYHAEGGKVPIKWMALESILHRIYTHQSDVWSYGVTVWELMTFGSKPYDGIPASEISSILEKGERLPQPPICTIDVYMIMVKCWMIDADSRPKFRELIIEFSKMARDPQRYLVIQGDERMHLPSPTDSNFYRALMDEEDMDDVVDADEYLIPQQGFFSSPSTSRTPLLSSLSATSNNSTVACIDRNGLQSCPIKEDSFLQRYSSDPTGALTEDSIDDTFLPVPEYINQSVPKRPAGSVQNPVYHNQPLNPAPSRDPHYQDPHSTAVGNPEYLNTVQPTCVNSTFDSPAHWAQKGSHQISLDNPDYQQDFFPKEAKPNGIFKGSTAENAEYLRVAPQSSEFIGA

[12] = biological target: T12, selected panels of kinases in HeLa and PC3 cell lysates (Homo sapiens, UniProt O95835); conditions: 10 uM; proteome HEL; peptide ALYATkTLR; labeling site Lys1
T12 construct: endogenous in cells; host or cells: HeLa and PC3 cell lysates

[13] = biological target: T13, selected panels of kinases in HeLa and PC3 cell lysates (Homo sapiens, UniProt Q13523); conditions: 10 uM; PRP4; peptide […]k[…]; proteome PC3; labeling site Lys2
T13 construct: endogenous in cells; host or cells: HeLa and PC3 cell lysates
T13 sequence (Q13523 whole entry): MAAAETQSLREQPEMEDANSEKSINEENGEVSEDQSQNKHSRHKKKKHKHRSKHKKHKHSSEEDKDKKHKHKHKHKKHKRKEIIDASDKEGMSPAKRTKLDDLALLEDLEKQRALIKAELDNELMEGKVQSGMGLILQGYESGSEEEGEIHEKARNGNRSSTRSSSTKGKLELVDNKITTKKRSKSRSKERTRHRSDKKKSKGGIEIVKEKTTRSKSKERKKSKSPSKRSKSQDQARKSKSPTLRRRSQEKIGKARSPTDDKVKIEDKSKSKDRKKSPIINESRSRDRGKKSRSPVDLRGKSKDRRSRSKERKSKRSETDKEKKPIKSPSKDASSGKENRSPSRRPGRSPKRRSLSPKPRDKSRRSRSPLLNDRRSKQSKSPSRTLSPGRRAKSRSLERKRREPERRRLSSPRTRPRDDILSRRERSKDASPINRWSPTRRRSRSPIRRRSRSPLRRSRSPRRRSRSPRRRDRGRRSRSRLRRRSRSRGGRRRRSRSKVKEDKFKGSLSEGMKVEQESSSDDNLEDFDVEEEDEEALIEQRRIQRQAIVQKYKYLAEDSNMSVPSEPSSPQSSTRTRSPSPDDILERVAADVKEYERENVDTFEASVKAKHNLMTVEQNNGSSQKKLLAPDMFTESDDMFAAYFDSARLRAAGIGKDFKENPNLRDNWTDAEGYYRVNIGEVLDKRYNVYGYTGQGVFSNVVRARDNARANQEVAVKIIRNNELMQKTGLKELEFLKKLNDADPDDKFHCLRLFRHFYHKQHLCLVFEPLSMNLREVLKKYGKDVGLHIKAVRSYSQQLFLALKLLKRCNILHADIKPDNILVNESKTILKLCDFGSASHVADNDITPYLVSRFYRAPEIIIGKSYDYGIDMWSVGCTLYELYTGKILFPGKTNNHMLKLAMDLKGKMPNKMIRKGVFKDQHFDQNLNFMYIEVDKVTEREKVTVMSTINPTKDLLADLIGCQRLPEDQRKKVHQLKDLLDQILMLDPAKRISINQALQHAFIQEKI

[14] = biological target: T14, selected panels of kinases in HeLa and PC3 cell lysates (Homo sapiens, UniProt O75385); conditions: 10 uM; ULK1; peptide DLk[…]; proteome HEL; labeling site Lys2
T14 construct: endogenous in cells; host or cells: HeLa and PC3 cell lysates
T14 sequence (O75385 whole entry): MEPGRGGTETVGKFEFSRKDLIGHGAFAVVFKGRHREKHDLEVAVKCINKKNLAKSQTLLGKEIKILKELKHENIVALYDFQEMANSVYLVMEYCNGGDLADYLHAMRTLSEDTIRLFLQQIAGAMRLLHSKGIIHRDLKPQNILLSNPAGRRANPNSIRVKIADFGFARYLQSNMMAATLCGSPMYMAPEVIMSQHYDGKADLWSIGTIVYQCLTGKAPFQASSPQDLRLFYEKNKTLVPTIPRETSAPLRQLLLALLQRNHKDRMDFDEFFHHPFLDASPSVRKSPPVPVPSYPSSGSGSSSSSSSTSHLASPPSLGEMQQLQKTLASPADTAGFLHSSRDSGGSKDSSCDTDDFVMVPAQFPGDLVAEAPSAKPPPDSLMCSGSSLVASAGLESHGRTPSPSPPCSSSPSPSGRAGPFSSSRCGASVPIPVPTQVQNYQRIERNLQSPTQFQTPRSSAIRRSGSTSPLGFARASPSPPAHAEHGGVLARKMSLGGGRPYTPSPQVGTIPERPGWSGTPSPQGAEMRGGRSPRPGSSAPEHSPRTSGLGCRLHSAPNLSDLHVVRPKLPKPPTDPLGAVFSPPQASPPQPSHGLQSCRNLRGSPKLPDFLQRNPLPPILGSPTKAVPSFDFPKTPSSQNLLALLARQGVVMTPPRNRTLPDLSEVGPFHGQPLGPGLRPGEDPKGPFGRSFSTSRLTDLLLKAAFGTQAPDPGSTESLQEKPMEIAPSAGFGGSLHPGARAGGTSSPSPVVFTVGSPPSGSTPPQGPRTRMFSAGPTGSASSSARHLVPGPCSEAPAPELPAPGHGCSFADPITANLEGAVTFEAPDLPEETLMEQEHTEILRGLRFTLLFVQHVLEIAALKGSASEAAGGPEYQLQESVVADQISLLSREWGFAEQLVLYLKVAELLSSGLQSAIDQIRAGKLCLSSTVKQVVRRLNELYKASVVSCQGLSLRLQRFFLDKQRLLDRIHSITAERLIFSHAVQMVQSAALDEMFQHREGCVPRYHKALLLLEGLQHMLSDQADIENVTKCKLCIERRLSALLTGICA

[15] = biological target: T15, selected panels of kinases in HeLa and PC3 cell lysates (Homo sapiens, UniProt Q7RTN6); conditions: 10 uM; STLK5; peptide YSVk[…]; proteome HEL; labeling site Activation Loop
T15 construct: endogenous in cells; host or cells: HeLa and PC3 cell lysates

[16] = proteome HEL, peptide DIkTLNIFLTK, labeling site Lys2
[17] = proteome HEL, peptide LGDYGLAkK, labeling site Activation Loop
[18] = proteome PC3, peptide DIkTLNIFLTK, labeling site Lys2
[19] = proteome PC3, peptide LGDYGLAkK, labeling site Activation Loop
[20] = peptide IPVAIkELR, labeling site Lys1
[21] = peptide ITDFGLAkLLGAEEK, labeling site Activation Loop
[22] = peptide […]kVPIK, labeling site Activation Loop

T1 sequence (O15111 whole entry): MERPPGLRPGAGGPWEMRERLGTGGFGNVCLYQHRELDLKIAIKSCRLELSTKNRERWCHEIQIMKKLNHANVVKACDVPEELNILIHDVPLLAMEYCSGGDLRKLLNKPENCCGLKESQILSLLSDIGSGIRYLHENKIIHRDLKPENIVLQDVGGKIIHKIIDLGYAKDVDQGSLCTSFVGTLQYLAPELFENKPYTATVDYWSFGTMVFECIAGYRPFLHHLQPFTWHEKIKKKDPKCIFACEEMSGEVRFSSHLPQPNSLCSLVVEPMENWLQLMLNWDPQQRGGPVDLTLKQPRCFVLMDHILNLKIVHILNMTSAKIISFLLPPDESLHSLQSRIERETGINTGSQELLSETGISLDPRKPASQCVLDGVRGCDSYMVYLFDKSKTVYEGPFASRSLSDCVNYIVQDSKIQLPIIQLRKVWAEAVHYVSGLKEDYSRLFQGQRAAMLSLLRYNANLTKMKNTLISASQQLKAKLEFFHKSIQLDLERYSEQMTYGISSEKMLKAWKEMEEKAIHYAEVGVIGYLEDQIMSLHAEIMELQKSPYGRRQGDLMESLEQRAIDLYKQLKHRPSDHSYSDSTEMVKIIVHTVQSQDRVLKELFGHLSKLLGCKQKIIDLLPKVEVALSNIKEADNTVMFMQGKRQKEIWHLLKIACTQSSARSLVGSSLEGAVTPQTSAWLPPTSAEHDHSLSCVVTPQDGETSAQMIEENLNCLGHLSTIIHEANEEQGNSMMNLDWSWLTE

Row | SMILES | % Inhibiton, IKKa [1] | % Inhibiton, MAP3K1 [2] | % Inhibiton, GSK3A [3] | % Inhibiton, CLK2 [4] | % Inhibiton, MAP2K3 ([5]; proteome HEL) | % Inhibiton, MAP2K3 ([5]; proteome PC3) | % Inhibiton, MSK1 domain1 [6] | % Inhibiton, EphB4 [7] | % Inhibition Wnk4 [8] | % Inhibiton, CaMK2g ([9]; proteome HEL) | % Inhibiton, CaMK2g ([9]; proteome PC3) | % Inhibiton, NEK9 [10, 16] | % Inhibiton, NEK9 [10, 17] | % Inhibiton, NEK9 [10, 18] | % Inhibiton, NEK9 [10, 19] | % Inhibiton, EGFR [11, 20] | % Inhibiton, EGFR [11, 21] | % Inhibiton, EGFR [11, 22] | % Inhibiton, LATS1 [12] | % Inhibition PRP4 [13] | other results
1 | COc1cc(C(=O)N2CCC(N3CCN(C)CC3)CC2)ccc1Nc1ncc2c(n1)N(C1CCCC1)c1ccccc1C(=O)N2C [Compound 25, 11-cyclopentyl-2-((2-methoxy-4-(4-(4-methylpiperazin-1-yl)piperidine-1-carbonyl)phenyl)amino)-5-methyl-5H-benzo[e]pyrimido[5,4-b][1,4]diazepin-6(11H)-one] | 5.3% | 36.1% | 4.1% | -17.0% | 11.8% | -7.0% | 26.7% | -13.0% | -16.3% | 8.7% | 7.8% | 14.6% | 1.9% | 1.6% | 6.7% | -6.4% | -31.1% | -10.1% | 7.2% | -11.9% | % Inhibition ULK1 [14]: 6.4%; % Inhibition STLK5 [15]: -32.9%
2 | CCOc1cc(C(=O)N2CCC(N3CCN(C)CC3)CC2)ccc1Nc1ncc2c(n1)N(C1CCCC1)c1ccccc1C(=O)N2C [Compound 26] | -5.9% | 2.2% | 10.2% | 9.1% | 10.9% | 0.8% | ~70.5% | 17% | -2.1% | 7.3% | -4.7% | 7.6% | -3% | -4.7% | 6.4% | -3.3% | -5.7% | -8.1% | 6.8% | 5.5% | % Inhibition ULK1 [14]: -5.1%; % Inhibition STLK5 [15]: ~72.8%
